# From patent publication US5703106A, “Antagonists of endothelin receptors” (priority 1994, dated 1997)
# Target: T1, ETB receptor (Sus scrofa, UniProt P35463)
# T1 construct: The plasma membrane of porcine lung (2 mg of protein); from tissue; host or cells: porcine lung plasma membrane
# T1 sequence (P35463 27-443): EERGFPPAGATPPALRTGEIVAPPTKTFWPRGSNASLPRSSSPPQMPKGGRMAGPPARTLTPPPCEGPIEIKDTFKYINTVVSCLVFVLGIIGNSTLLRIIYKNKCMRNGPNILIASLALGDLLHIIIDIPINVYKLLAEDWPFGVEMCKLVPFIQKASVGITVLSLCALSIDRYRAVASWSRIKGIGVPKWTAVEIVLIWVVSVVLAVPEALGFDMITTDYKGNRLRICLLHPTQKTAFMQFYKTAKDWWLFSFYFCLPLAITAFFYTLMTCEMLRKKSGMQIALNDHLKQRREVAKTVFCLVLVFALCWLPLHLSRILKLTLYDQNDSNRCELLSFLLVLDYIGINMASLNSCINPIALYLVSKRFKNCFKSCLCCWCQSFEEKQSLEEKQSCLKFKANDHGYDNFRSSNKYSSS
# Test: Endothelin (ET) receptor binding assay, ETB receptor
# Settings: [^125 I]ET-3 alone; porcine lung plasma membrane; 37° C., 1 hour, pH 7.4
# Experimental: Endothelin (ET) receptor binding assay
# (§1) After the incubation, unbound [^125 I]ETs were separated by centrifugation at 20,000×g for 20 min at 4° C. followed by aspiration of the supernatant. The radioactivity in the membrane pellet is measured in Wallac-1470 Wizard autogamma counter (Pharmacia). Nonspecific binding is defined as membrane-associated radioactivity in the presence of saturating concentrations of ETs (100 nM). Nonspecific binding is subtracted from the total binding and the difference is defined as specific binding.
row,Ki,Compound
1,2.3 nM,"Cc1cc(C)cc(C(=O)N(C)[C@H](Cc2ccc(O)cc2)C(=O)NC(Cc2c[nH]c3ccccc23)C(=O)NS(=O)(=O)c2ccccc2)c1 (some centres unmarked) [7(9), N-benzenesulfonyl-[N-(3,5-dimethylbenzoyl)-N-methyl-3-(4-hydroxyphenyl)-(D)-alanyl]-(D,L)-tryptophanamide]"
2,3.5 nM,"CCCCS(=O)(=O)NC(=O)[C@@H](NC(=O)C(Cc1ccc(-c2ccno2)cc1)N(C)C(=O)c1cc(C)cc(C)c1)[C@@H](C)CC (some centres unmarked) [10(a), N-butanesulfonyl-[N-(3,5-dimethylbenzoyl)-N-methyl-3-[4-(5-isoxazolyl)-phenyl]-(D,L)-alanyl]-(L)-isoleucineamide]"
3,0.9 nM,"Cc1cc(C)cc(C(=O)N(C)[C@H](Cc2ccc(-c3ccccc3)cc2)C(=O)NC(Cc2c[nH]c3ccccc23)C(=O)NS(=O)(=O)c2ccccc2)c1 (some centres unmarked) [Example 1, N-benzenesulfonyl-[N-(3,5-dimethylbenzoyl)-N-methyl-3-(biphenyl-4-yl)-(D)-alanyl]-(D,L)-tryptophanamide]"
4,0.3 nM,"Cc1cc(C)cc(C(=O)N(C)[C@H](Cc2ccc(-c3ccsc3)cc2)C(=O)NC(Cc2c[nH]c3ccccc23)C(=O)NS(=O)(=O)c2cccs2)c1 (some centres unmarked) [Example 2, N-(2-thienyl)sulfonyl-[N-(3,5-dimethylbenzoyl)-N-methyl-(D)-3-[4-(3-thienyl)phenyl]-alanyl]-(D,L)-tryptophanamide]"
5,0.34 nM,Cc1cc(C)cc(C(=O)N(C)[C@H](Cc2ccc(-c3ccno3)cc2)C(=O)NC(Cc2c[nH]c3ccccc23)C(=O)NS(=O)(=O)c2ccccc2)c1 (some centres unmarked) [Example 6]
6,0.24 nM,"CCCCS(=O)(=O)NC(=O)[C@H](Cc1c[nH]c2ccccc12)NC(=O)C(Cc1ccc(-c2ccno2)cc1)N(C)C(=O)c1cc(C)cc(C)c1 (some centres unmarked) [Example 8, N-butanesulfonyl-[N-(3,5-dimethylbenzoyl)-N-methyl-3-[4-(5-isoxazolyl)-phenyl]-(D,L)-alanyl]-(L)-tryotophanamide]"
7,0.23 nM,"C=CCS(=O)(=O)NC(=O)[C@H](Cc1c[nH]c2ccccc12)NC(=O)C(Cc1ccc(-c2ccno2)cc1)N(C)C(=O)c1cc(C)cc(C)c1 (some centres unmarked) [Example 9, N-(2-propene)sulfonyl-[N-(3,5-dimethylbenzoyl)-N-methyl-3-[4-(5-isoxazolyl)-phenyl]-(D,L)-alanyl]-(L)-tryptophanamide]"
8,1.2 nM,"CCCCS(=O)(=O)NC(=O)[C@@H](NC(=O)C(Cc1ccc(-c2ccno2)cc1)N(C)C(=O)c1cc(C)cc(C)c1)C(C)C (some centres unmarked) [Example 11, N-butanesulfonyl-[N-(3,5-dimethylbenzoyl)-N-methyl-3-[4-(5-isoxazolyl)-phenyl]-(D,L)-alanyl]-(L)-valineamide]"
9,0.16 nM,"CCCCS(=O)(=O)NC(=O)[C@H](Cc1c[nH]c2ccccc12)NC(=O)C(Cc1ccc(-n2cncn2)cc1)N(C)C(=O)c1cc(C)cc(C)c1 (some centres unmarked) [Example 12, N-butanesulfonyl-[N-(3,5-dimethylbenzoyl)-N-methyl-3-[4-(1,2,4-triazol-1-yl)-phenyl]-(D,L)-alanyl]-(L)-tryptophanamide]"
10,0.27 nM,"CCCCS(=O)(=O)NC(=O)[C@H](Cc1c[nH]c2ccccc12)NC(=O)C(Cc1ccc(-n2ccnn2)cc1)N(C)C(=O)c1cc(C)cc(C)c1 (some centres unmarked) [Example 13, N-butanesulfonyl-[N-(3,5-dimethylbenzoyl)-N-methyl-3-[4-(1,2,3-triazol-1-yl)-phenyl]-(D,L)-alanyl]-(L)-tryptophanamide]"

# Target: T1, ETB receptor
# Test: Scatchard analysis of radioligand binding, ETB receptor
# Settings: porcine lung plasma membrane, [^125 I]ET-3 alone
# Experimental: as §1, with “binding. Total binding is always less than 15% of the total radioactivity added. […] From the inhibition curves for the binding of [^125 I]ETs, the apparant binding affinity constant (Ki) of one of the test compounds is calculated as a parameter of the affinity for the ETA and ETB receptors, as shown in the following table.” for “binding.”
row,Compound,Bmax
1,[^125 I]ET-3: radiolabelled endothelin-3 purchased from Amersham International; ETs are vasoactive peptides with 21 amino acid residues,362 fmol/mg protein
